According to patent US20020165168A1, “USE OF SUGAR DERIVATIVES AS ANTIMICROBIAL, ANTIMYCOTIC AND/OR ANTIVIRAL ACTIVE SUBSTANCES” (priority 1995, published 2002):

System: Corynebacterium xerosis
Test: action against Corynebacterium xerosis
Details: qualitative statement, no method or data given

Row | SMILES | action against Corynebacterium xerosis
1 | CCCCCCCCOC1O[C@H](CO)[C@@H](O)[C@H](O)[C@H]1O (stereo partly drawn) [octylglucopyranoside] | very good action
2 | CCCCCCCCCCCCO[C@@H]1O[C@H](CO)[C@@H](O)[C@H](O)[C@H]1O [β-D-dodecylglucopyranoside] | very good action
3 | CCCCCCCCCO[C@@H]1O[C@H](CO)[C@@H](O)[C@H](O)[C@H]1O [β-D-nonylglucopyranoside] | very good action
